Data taken from patent publication EP4431512A1, “NOVEL DUAL NK-1/NK-3 RECEPTOR ANTAGONISTS” (Bayer Consumer Care AG, priority 2023, dated 2024).

Assays:
Human NK3 receptor [1] = molecular target: T1, Human NK3 receptor (Homo sapiens, UniProt P29371); test: NK3 receptor binding assay (antagonist radioligand, scintillation counting); set-up: expressed in transfected cells; host or cells: CHO cells (membrane preparations); settings: for nH: NK3(h) (antagonist radioligand), Hill coefficient of competition curve; for binding affinities: result in words, human NK3 receptors
T1 sequence (P29371 1-465): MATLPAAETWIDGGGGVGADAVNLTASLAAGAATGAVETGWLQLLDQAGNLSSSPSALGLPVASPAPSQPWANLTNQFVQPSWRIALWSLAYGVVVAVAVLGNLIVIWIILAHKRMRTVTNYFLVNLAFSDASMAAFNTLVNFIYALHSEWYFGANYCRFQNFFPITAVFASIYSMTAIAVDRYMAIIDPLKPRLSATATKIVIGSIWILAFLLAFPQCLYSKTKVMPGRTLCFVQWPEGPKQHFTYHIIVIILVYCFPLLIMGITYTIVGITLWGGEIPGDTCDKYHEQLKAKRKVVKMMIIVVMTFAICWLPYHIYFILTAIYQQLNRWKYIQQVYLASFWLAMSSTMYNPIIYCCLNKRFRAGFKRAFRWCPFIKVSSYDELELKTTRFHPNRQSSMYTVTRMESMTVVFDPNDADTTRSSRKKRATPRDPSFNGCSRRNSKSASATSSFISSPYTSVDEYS
Procedure: Compound binding was calculated as a %-inhibition of the binding of a radioactively labeled ligand specific for each target.
NK3 receptor binding affinities of the compounds of the invention were determined by an scintillation counting and using membrane preparations of CHO cells recombinantly expressing human NK3 receptors (as described by Sarau, H.M. et al. (1997), J. Pharmacol. Exp. Ther., 281: 1303-1311).
The results are expressed as a percent of control specific binding (measured specific binding)/(control specific binding)*100 [formula] and as a percent inhibition of control specific binding 100−((measured specific binding)/(control specific binding)*100) [formula] obtained in the presence of the test compounds.
The IC50 values (concentration causing a half-maximal inhibition of control specific binding) and Hill coefficients (nH) were determined by non-linear regression analysis of the competition curves generated with mean replicate values using Hill equation curve fitting Y = D + [(A−D)/(1 + ((C/C50))^nH)] [formula] where Y = specific binding, A = left asymptote of the curve, D = right asymptote of the curve, C = compound concentration, C50 =IC50, and nH = slope factor. This analysis was performed using software developed at Cerep (Hill software) and validated by comparison with data generated by the commercial software SigmaPlot® 4.0 for Windows® (^© 1997 by SPSS Inc.).
The inhibition constants (Ki) were calculated using the Cheng Prusoff equation Ki = (IC50)/((1+L/KD)) [formula] where L = concentration of radioligand in the assay, and KD = affinity of the radioligand for the receptor. A scatchard plot is used todetermine the KD.

NK1 receptors [2] = molecular target: T2, NK1 receptors (Homo sapiens, UniProt P25103); test: NK1 receptor binding assay (agonist radioligand, scintillation counting); set-up: that is endogenously expressing human NK1 receptors; endogenous in cells; host or cells: U373 MG human astrocytoma cells (membrane preparations); settings: NK1(h) (agonist radioligand); Hill coefficient of competition curve
T2 sequence (P25103 whole entry): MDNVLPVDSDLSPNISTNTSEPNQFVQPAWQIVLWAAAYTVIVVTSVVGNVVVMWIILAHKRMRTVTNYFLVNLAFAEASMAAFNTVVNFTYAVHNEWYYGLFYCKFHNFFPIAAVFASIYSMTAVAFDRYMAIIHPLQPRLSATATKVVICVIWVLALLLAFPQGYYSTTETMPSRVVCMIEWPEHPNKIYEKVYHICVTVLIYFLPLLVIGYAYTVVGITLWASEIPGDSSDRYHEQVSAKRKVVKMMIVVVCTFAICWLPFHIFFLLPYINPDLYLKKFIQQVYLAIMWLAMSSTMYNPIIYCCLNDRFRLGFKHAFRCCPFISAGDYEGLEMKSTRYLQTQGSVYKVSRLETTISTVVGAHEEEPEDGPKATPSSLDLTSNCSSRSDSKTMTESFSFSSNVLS
From the text: A scatchard plot is used todetermine the KD.

Human NK3 receptor [3] = molecular target: T1, Human NK3 receptor; test: NK3 receptor functional assay (antagonist effect, intracellular Ca2+, fluorimetry); assay type: cell-based; set-up: expressed in transfected cells; host or cells: CHO cells; settings: result in words; human NK3 receptors
Procedure: (§1) Cellular antagonist effect was calculated as a %-inhibition of reference agonist response for each target.
Human NK3 receptor antagonistic activity was determined by measuring antagonistic effects of the compounds of the formula on the reduction of agonist induced intracellular [Ca^2+] concentrations in CHO cells recombinantly expressing […] using an fluorimetric detection method. The assay was adapted from Medhurst, A.D. et al. (1999), Brit. J. Pharmacol., 128: 627-636. As an agonist to induce intracellular [Ca^2+] [MePhe^7]-NKB was used as outlined in the overview table below.
(§2) For the antagonists, the apparent dissociation constants (KB ) were calculated using the modified Cheng Prusoff equation KB = (IC50)/(1 + (A/EC50A)) [formula] where A = concentration of reference agonist in the assay, and EC50A = EC50 value of the reference agonist.

NK1 receptors [4] = molecular target: T2, NK1 receptors; test: NK1 receptor functional assay (antagonist effect, intracellular Ca2+, fluorimetry); assay type: cell-based; set-up: Human astrocytoma U373MG cells do endogenously express NK1 receptors; endogenous in cells; host or cells: U373MG human astrocytoma cells; settings: result in words
Procedure: as §1
Human NK1 receptor antagonistic activity assays were performed by measuring antagonistic effects of the compounds of the formula on the reduction agonist induced intracellular [Ca^2+] calcium concentrations in the human astrocytoma cell line U373MG using fluorimetric detection. Human astrocytoma U373MG cells do endogenously express NK1 receptors and were used in the assay according to Eistetter, H.R. et al. (1992), Glia, 6: 89-95 and [Sar^9,Met(O2)^11]-Substance P was used as agonistic stimulus of the NK1 receptor in the cells and assay. Relevant particulars of the assay are outlined in the table below.
as §2

| nH (Human NK3 receptor [1]) | binding affinities (Human NK3 receptor [1]) | nH (NK1 receptors [2]) | antagonistic activities (Human NK3 receptor [3]) | antagonistic activities (NK1 receptors [4]) | SMILES |
| --- | --- | --- | --- | --- | --- |
| 1 | significant | 1 | significant | significant | CC1CN2C[C@@H](CO)N(c3cc(-c4ccc(F)cc4CO)c(N(C)C(=O)C(C)(C)c4cc(C(F)(F)F)cc(C(F)(F)F)c4)cn3)C[C@H]2CO1 (stereo partly drawn) [compound of formula (III), 2-[3,5-bis(trifluoromethyl)phenyl]-N-{4-[4-fluoro-2-(hydroxymethyl)phenyl]-6-[(7S,9aS)-7-(hydroxymethyl)-3-methylhexahydropyrazino[2,1-c][1,4]oxazin-8(1H)-yl]pyridin-3-yl}-N,2-dimethylpropanamide] |
| 1.3 | significant | 1.2 | significant | significant | Cc1cc(F)ccc1-c1cc(N2C[C@H]3COC(C)CN3C[C@H]2CO)ncc1N(C)C(=O)C(C)(C)c1cc(C(F)(F)F)cc(C(F)(F)F)c1 (stereo partly drawn) [compound of formula (IV), 2-[3,5-bis(trifluoromethyl)phenyl]-N-{4-(4-fluoro-2-methylphenyl)-6-[(7S,9aS)-7-(hydroxymethyl)-3-methylhexahydropyrazino[2,1-c][1,4]oxazin-8(1H)-yl]pyridin-3-yl}-N,2-dimethylpropanamide] |
| – | significant | – | significant | significant | Cc1cc(F)ccc1-c1cc(N2C[C@H]3COCC[N+]3([O-])C[C@H]2CO)ncc1N(C)C(=O)C(C)(C)c1cc(C(F)(F)F)cc(C(F)(F)F)c1 (stereo partly drawn) [compound of formula (II), N-[6-[(7S,9aS)-7-(hydroxymethyl)-5-oxido-3,4,6,7,9,9a-hexahydro-1H-pyrazino[2,1-c][1,4]oxazin-5-ium-8-yl]-4-(4-fluoro-2-methyl-phenyl)-3-pyridyl]-2-[3,5-bis(trifluoromethyl)phenyl]-N,2-dimethyl-propanamide] |
| – | significant | – | significant | significant | CN(C(=O)C(C)(C)c1cc(C(F)(F)F)cc(C(F)(F)F)c1)c1cnc(N2C[C@H]3COCCN3C[C@H]2CO)cc1-c1ccc(F)cc1CO [compound of formula (V), 2-[3,5-bis(trifluoromethyl)phenyl]-N-{4-[4-fluoro-2-(hydroxymethyl)phenyl]-6-[(7S,9aS)-7-(hydroxymethyl)hexahydropyrazino[2,1-c][1,4]oxazin-8(1H)-yl]pyridin-3-yl}-N,2-dimethylpropanamide] |
